This note sets out measurements from patent US20250127908A1, “HETEROBIFUNCTIONAL CONDITIONAL INHIBITORS” (Kolm Therapeutics Inc., priority 2023, published 2025).

A value given as a limit tells only on which side of the number the result lay.

Test [1] deals with AR and CBP or p300 ternary complex. The test is described as follows: Ternary complex formation assay (sandwich ELISA on lysates of treated VCaP cells: AR capture, CBP or p300 detection). In kind it is cell-based. Particulars: VCaP cells treated with bifunctional for 1.5 hours; lysate; anti-AR capture, CBP or p300 antibody detection. As for the experimental part: Example B-1: Ternary Complex Formation Assay
Preparation of Mouse Anti-AR Antibody Coated 96 Well Plates
Black MaxiSorp plates: coat with 50 μL of mouse 1/50 diluted AR antibody (Monoclonal Antibody (AR 441 from Thermo Fisher); diluted in phosphate buffered saline (PBS). Spin the liquid to the bottom of the wells, if necessary. Incubate overnight at 4° C. Next day, wash 3 times with 200 μL of TBST. Block with 200 μL of blocking buffer (5% BSA in TBST) at room temperature for 2 hours (BSA: A4503 or A2153 from Sigma). Wash plates 3 times with TBST. Plates are ready for lysates
Preparation of Dimerizer Treated Lysates
Culture cells in 96 wells at 50K VCaP cells/well for at least 3 days. Plate in 5% Omega charcoal stripped FBS in total volume of 200 uL. Treat with bifunctional for 1.5 hours by adding 1 μL of 200× stock in DMSO. Aspirate media/compound. Add and pipet-to-mix 70 μL of 1× AlphaLisa Lysis Buffer to each well (Perkin Elmer, AlphaLISA SureFire Ultra, diluted in water). Pipet up and down when adding lysis buffer to disrupt cells. Let lysis proceed for 30 min at 4° C.
Incubate for 1 hour at room temperature. Flick out the lysates. Wash 3 times with TBST. Add 75 uL of rabbit CBP or p300 antibody to each well (diluted 1:5000 in blocking buffer (5% BSA in TBST). CBP antibody: (D6C5) Rabbit mAb #7389; p300 antibody: (D8Z4E) Rabbit mAb #86377. Incubate overnight at 4° C. Wash 3 times with 300 uL TBST, each time on shaker for 5-10 min. Prepare goat anti-rabbit antibody conjugated to HRP (1/100K dilution in blocking buffer) Invitrogen Catalog number: 32260. Add 75 uL of HRP-conjugated goat anti-rabbit antibody. Incubate at room temperature for 1 hour. Flick out the HRP-antibody mixture. Wash 7-8 times with TBST, each time on shaker for 10 min. Later washes try to overflow the wells so that no residual HRP remains bound to the sides of the well. Prepare and add 75 uL/well of QuantaRed Enhance Chemifluorescent HRP Substrate solution. Immediately read fluorescence on BMG ClarioStar (ex: 570/em 585), and repeat the read in 5 minutes and 15 minutes.

The subject of the next test is VCaP cells. The test is described as follows: VCaP growth inhibition assay (CTG). Format: cell-based. Particulars: Homo sapiens, 216 h, 30 pM R1881, 9-day treatment, CTG luminescence. As for the experimental part: Example B-2: VCaP Growth Inhibition Assay
VCaP cells (ATCC Cat #CRL-2876) are plated at 1×10^4 cells per well of a white plastic 96-well cluster plate (Thermo Scientific Nunc Cat #165306) in 100 uL phenol red-free DMLEM (Gibco Cat #21063-029) media with […] (Omega Scientific Cat #FB-04). Cluster plates are returned to the incubator (37*C/5% CO2) for 72 hours prior to treatment. Just prior to treatment, 100 uL of phenol red-free DMEM/5% CSS and 60 pM Ri881 (Sigma Cat #R0908-10 mg) was added to each well of the cluster plates (Final R1881 concentration=30 pM). Compounds (200×) were added to each well in a volume of 1 uL, with serial dilutions (1:5) from 20 uM to 2 pM (final concentrations in well are 100 nM to 10 fMV). Cluster plates are returned to the incubator for 9 days.
After the 9-day treatment period, media was removed from the cluster plates by inversion and 100 uL room temperature CTG reagent (Promega Cat #G7573) is added to each well. The cluster plates are placed on a shaker and incubated at room temperature for 20 minutes. Following this shaking/incubation, cluster plates are read on a luminometer (BMG ClarioStar). IC50 values are obtained by graphing the RLU data vs. compound concentration with nonlinear regression 4-parameter logistic curves (GraphPad Prism).

`CC(=O)N1CCc2c(c(N3CCCc4cc(-c5cnn(C)c5)c(C(F)F)cc43)nn2C2CCN(C(=O)COC3CCN(c4ccc(N5C(=S)N(c6ccc(C#N)c(C(F)(F)F)c6)C(=O)C5(C)C)cc4)CC3)CC2)C1` [Compound 21]: the “Average Ternary Complex” value in test [1] is “B (B is >1 nM and ≤10 nM)”.
The molecule `CC(=O)N1CCc2c(c(N3CCCc4cc(-c5cnn(C)c5)c(C(F)F)cc43)nn2C2CCN(CCCOc3ccc(C4CCN(c5ccc(C#N)c(C(F)(F)F)c5)CC4)cc3)CC2)C1` [Compound 4, 4-[4-[4-[3-[4-[5-acetyl-3-[7-(difluoromethyl)-6-(1-methylpyrazol-4-yl)-3,4-dihydro-2H-quinolin-1-yl]-6,7-dihydro-4H-pyrazolo[4,3-c]pyridin-1-yl]-1-piperidyl]propoxy]phenyl]-1-piperidyl]-2-(trifluoromethyl)benzonitrile] came in with a concentration for half-maximal inhibition (IC50) with VCaP cells of over 100 nM. Also, the “Average Ternary Complex” value in test [1] is “D (D is active and >100 nM)”.
With `CC(=O)N1CCc2c(c(N3CCCc4cc(-c5cnn(C)c5)c(C(F)F)cc43)nn2C2CCN(CCOC3CCN(c4ccc(N5C(=S)N(c6ccc(C#N)c(C(F)(F)F)c6)C(=O)C5(C)C)cc4)CC3)CC2)C1` [Compound 20], the “Average Ternary Complex” value in test [1] is “B (B is >1 nM and ≤10 nM)”.
On to `CC(=O)N1CCc2c(c(N3CCCc4cc(C#N)ccc43)nn2C2CCN(CC3CCN(c4ccc(C5CCN(c6ccc(C#N)c(C(F)(F)F)c6)CC5)cc4)CC3)CC2)C1` [Compound 13, 1-[5-acetyl-1-[1-[[1-[4-[1-[4-cyano-3-(trifluoromethyl)phenyl]-4-piperidyl]phenyl]-4-piperidyl]methyl]-4-piperidyl]-6,7-dihydro-4H-pyrazolo[4,3-c]pyridin-3-yl]-3,4-dihydro-2H-quinoline-6-carbonitrile], for which the IC50 with VCaP cells was over 100 nM. Besides, the “Average Ternary Complex” value in test [1] is “D (D is active and >100 nM)”.
Take `CNC(=O)N1CCc2c(c(N3CCCc4cc(-c5cnn(C)c5)c(C(F)F)cc43)nn2C2CCN(C(=O)CCC3CCN(c4ccc([C@H]5c6ccc(O)cc6CC[C@H]5c5ccccc5)cc4)CC3)CC2)C1` [Compound 7]: the IC50 in the test on VCaP cells fell in the range of 1 to 100 nM.
On to `CC(=O)N1CCc2c(c(N3CCCc4cc(-c5cnn(C)c5)c(C(F)F)cc43)nn2C2CCN(C3CCC(Oc4ccc(-c5ccc(N6C(=S)N(c7ccc(C#N)c(C(F)(F)F)c7)C(=O)C6(C)C)cc5)cc4)C3)CC2)C1` (centres unmarked) [Compound 18], for which, in test [1], the “Average Ternary Complex” value was “B (B is >1 nM and ≤10 nM)”.
The molecule `CC(=O)N1CCc2c(c(N3CCCc4cc(-c5cnn(C)c5)c(C(F)F)cc43)nn2C2CCN(CCCOc3ccc(-c4ccc(N5C(=S)N(c6ccc(C#N)c(C(F)(F)F)c6)C(=O)C5(C)C)cc4)cc3)CC2)C1` [Compound 1, 4-[3-[4-[4-[3-[4-[5-acetyl-3-[7-(difluoromethyl)-6-(1-methylpyrazol-4-yl)-3,4-dihydro-2H-quinolin-1-yl]-6,7-dihydro-4H-pyrazolo[4,3-c]pyridin-1-yl]-1-piperidyl]propoxy]phenyl]phenyl]-4,4-dimethyl-5-oxo-2-thioxo-imidazolidin-1-yl]-2-(trifluoromethyl)benzonitrile] returned an IC50 in the test on VCaP cells of over 100 nM. The “Average Ternary Complex” value in test [1] was “B (B is >1 nM and ≤10 nM)”.
In the test on VCaP cells, `CC(=O)N1CCc2c(c(-c3cccc4cc(-c5ccc(CCC6CCN(c7ccc(C8CCN(c9ccc(C#N)c(C(F)(F)F)c9)CC8)cc7)CC6)nc5)ncc34)nn2C2CCOCC2)C1` [Compound 14, 4-[4-[4-[4-[2-[5-[8-(5-acetyl-1-tetrahydropyran-4-yl-6,7-dihydro-4H-pyrazolo[4,3-c]pyridin-3-yl)-3-isoquinolyl]-2-pyridyl]ethyl]-1-piperidyl]phenyl]-1-piperidyl]-2-(trifluoromethyl)benzonitrile] gave a half-inhibitory concentration (IC50) of over 100 nM. In addition, the “Average Ternary Complex” value in test [1] was “D (D is active and >100 nM)”.
Consider `CC(=O)N1CCc2c(c(N3CCCc4cc(-c5cnn(C)c5)c(C(F)F)cc43)nn2C2CCN(C3CC(Oc4ccc(-c5ccc(N6C(=S)N(c7ccc(C#N)c(C(F)(F)F)c7)C(=O)C6(C)C)cc5)cc4)C3)CC2)C1` (centres unmarked) [Compound 19], for which the “Average Ternary Complex” value in test [1] is “B (B is >1 nM and ≤10 nM)”.
`CC(=O)N1CCc2c(c(-c3cccc4cc(-c5cnn(CCOC6CCN(c7ccc(C8CCN(c9ccc(C#N)c(C(F)(F)F)c9)CC8)cc7)CC6)c5)ncc34)nn2C2CCOCC2)C1` [Compound 15, 4-[4-[4-[4-[2-[4-[8-(5-acetyl-1-tetrahydropyran-4-yl-6,7-dihydro-4H-pyrazolo[4,3-c]pyridin-3-yl)-3-isoquinolyl]pyrazol-1-yl]ethoxy]-1-piperidyl]phenyl]-1-piperidyl]-2-(trifluoromethyl)benzonitrile] yielded a concentration for half-maximal inhibition (IC50) in the test with VCaP cells of 1 to 100 nM. Also, the “Average Ternary Complex” value in test [1] was “D (D is active and >100 nM)”.
Regarding `CC(=O)N1CCc2c(c(N3CCCc4cc(C#N)ccc43)nn2C2CCN(C(=O)C3CCN(c4ccc(C5CCN(c6ccc(C#N)c(C(F)(F)F)c6)CC5)cc4)CC3)CC2)C1` [Compound 12, 1-[5-acetyl-1-[1-[1-[4-[1-[4-cyano-3-(trifluoromethyl)phenyl]-4-piperidyl]phenyl]piperidine-4-carbonyl]-4-piperidyl]-6,7-dihydro-4H-pyrazolo[4,3-c]pyridin-3-yl]-3,4-dihydro-2H-quinoline-6-carbonitrile], the half-maximal inhibitory concentration (IC50) in the test with VCaP cells is over 100 nM. Besides, the “Average Ternary Complex” value in test [1] was “D (D is active and >100 nM)”.
`CNC(=O)N1CCc2c(c(N3CCCc4cc(-c5cnn(C)c5)c(C(F)F)cc43)nn2C2CCN(C(=O)COCC3CCN(c4ccc([C@H]5c6ccc(O)cc6CC[C@H]5c5ccccc5)cc4)CC3)CC2)C1` [Compound 8] returned an IC50 with VCaP cells of 1 to 100 nM.
Take `CC(=O)N1CCc2c(c(N3CCCc4cc(-c5cnn(C)c5)c(C(F)F)cc43)nn2C2CCN(CCCCOc3ccc(C4CCN(c5ccc(C#N)c(C(F)(F)F)c5)CC4)cc3)CC2)C1` [Compound 3, 4-[4-[4-[4-[4-[5-acetyl-3-[7-(difluoromethyl)-6-(1-methylpyrazol-4-yl)-3,4-dihydro-2H-quinolin-1-yl]-6,7-dihydro-4H-pyrazolo[4,3-c]pyridin-1-yl]-1-piperidyl]butoxy]phenyl]-1-piperidyl]-2-(trifluoromethyl)benzonitrile]: the “Average Ternary Complex” value in test [1] is “D (D is active and >100 nM)”.
As for `CC(=O)N1CCc2c(c(N3CCCc4cc(-c5cnn(C)c5)c(C(F)F)cc43)nn2C2CCN(CCOCCOc3ccc(C4CCN(c5ccc(C#N)c(C(F)(F)F)c5)CC4)cc3)CC2)C1` [Compound 2, 4-[4-[4-[2-[2-[4-[5-acetyl-3-[7-(difluoromethyl)-6-(1-methylpyrazol-4-yl)-3,4-dihydro-2H-quinolin-1-yl]-6,7-dihydro-4H-pyrazolo[4,3-c]pyridin-1-yl]-1-piperidyl]ethoxy]ethoxy]phenyl]-1-piperidyl]-2-(trifluoromethyl)benzonitrile], the “Average Ternary Complex” value in test [1] was “D (D is active and >100 nM)”.
Consider `CNC(=O)N1CCc2c(c(N3CCCc4cc(-c5cnn(C)c5)c(C(F)F)cc43)nn2C2CCN(C(=O)COCCCC3CCN(c4ccc([C@H]5c6ccc(O)cc6CC[C@H]5c5ccccc5)cc4)CC3)CC2)C1` [Compound 9], for which, in the test on VCaP cells, the concentration for half-maximal inhibition (IC50) was 1 to 100 nM.
On the same count and under the same terms, with `CNC(=O)N1CCc2c(c(N3CCCc4cc(-c5cnn(C)c5)c(C(F)F)cc43)nn2C2CCN(C(=O)CC3CCN(c4ccc([C@H]5c6ccc(O)cc6CC[C@H]5c5ccccc5)cc4)CC3)CC2)C1` [Compound 6] the figure was 1 to 100 nM; with `CNC(=O)N1CCc2c(c(N3CCCc4cc(-c5cnn(C)c5)c(C(F)F)cc43)nn2C2CCN(C(=O)COCCOCCN3CCN(CC4CCN(c5ccc([C@H]6c7ccc(O)cc7CC[C@H]6c6ccccc6)cc5)CC4)CC3)CC2)C1` [Compound 11], over 100 nM.
